Test results as given in US12396990B2, “Application of 5-hydroxytryptamine receptor 1A in preparing drug for portal hypertension” (SECOND AFFILIATED HOSPITAL, SECOND MILITARY MEDICAL …, priority 2018, dated 2025).
Entries after “also recorded” stand apart in the source; their conditions may differ. Marks after values point to notes of the source that are not given here.

Columns and labels:
isolated portal veins = test: Contractile tension of isolated portal veins; parameters: species or system Male Wistar rats; conditions: for Effect of antagonist on 5-HT induced contraction of isolated portal vein: pre-incubation with antagonist for 20 minutes before 5-HT; for Effect of antagonist on 8-OH-DPAT induced contraction of isolated portal vein: pre-incubation with antagonist for 20 minutes before 8-OH-DPAT; for Effect of antagonist on F11440 induced contraction of isolated portal vein: pre-incubation with antagonist for 20 minutes before F11440; for Effect of agonist on contractile tension of isolated portal vein: cumulative concentrations, 3 minutes each, agonist alone
Description: Effects of the selective agonist and antagonist of HTR1A on contractile tension of isolated portal vein.
1) Male Wistar rats, weighting 140 g to 160 g, were anesthetized with inhalational isopentane through a mask. The portal veins were gently isolated from the animals and 3-5 mm of the vessel was removed under the anatomical microscope from the connective tissue, and then the vessel was placed in a cold Tyrode solution (NaCl: 148.9, KCl: 2.7, CaCl2: 1.8, NaPO4H2: 0.2, NaCO3H: 11.9, MgCl2: 1.2, glucose: 5.5 mM). Isolated portal veins were mounted in 20 ml jacketed tissue baths containing the appropriate Tyrode solution (37±0.5° C., PH=7.4) constantly bubbled with O2, by suspending them between two L-shaped stainless-steel hooks. The lower hooks were fixed and the upper hooks were attached to force-displacement transducers. Isometric force was measured and recorded using the ALC-MPA software associated with the equipment.
2) A pre-load of 1 g was applied. After mounting, isolated portal veins were equilibrated for […]. The contractile response to depolarizing potassium solution was then assessed as a test for viability. The depolarizing KCl solution (80 mM) had the same composition as the Tyrode solution used, except for the NaCl that had been completely replaced by an equimolar amount of KCl. The iPVs were washed with Tyrode solution four times and re-equilibrated for another […].
3) To evaluate the effects of 5-HT or HTR1A agonist on the contraction of iPVs, serotonin or selective agonist of HTR1A (8-OH-DPAT and F11440) was directly administrated into the tissue baths for 3 minutes in cumulatively concentrations, and the magnitude of contractile tension was recorded. To evaluate the effects of HTR1A antagonist, a pre-incubation with selective antagonist of HTR1A (WAY 100635 and NAD 299) for 20 minutes was used before increasing administration of 5-HT or HTR1A agonist.
4) 5-HT, selective agonist of HTR1A (8-OH-DPAT and F11440), and selective antagonist of HTR1A (WAY 100635 and NAD 299) were purchased from Sigma, Selleck, Tocris, and TargetMol, respectively.

[1] = system: cirrhotic portal hypertensive rats induced by carbon tetrachloride (CCl4); test: Portal pressure in cirrhotic portal hypertensive rats induced by carbon tetrachloride (CCl4), antagonists (Example 2); type: in vivo, Male Wistar rats; conditions: CCl4 model; for Effect on portal pressure / Portal pressure: WAY 100635 1 mg/kg i.p.; for Effect on portal pressure: alverine 15 mg/kg by gavage, once per day; for Portal pressure: alverine 15 mg/kg p.o., means ±SEM; for Portal pressure / Effect on portal pressure compared with carvedilol: carvedilol 10 mg/kg p.o.; for Portal pressure / Change of portal pressure vs. Vehicle: once per day for one week; for Change of portal pressure vs. Vehicle: same dosing
Description: 1) Self-made portal pressure measuring kit, which contains 24-Gauge scalp vein set (Y type) and catheter, and high-sensitive pressure sensor, biological signal processing system (SMUP-U, Jide experimental teaching equipment factory, Shanghai, China) were used to measure the portal pressure in rats. 2) Connect all the catheters and device, check the tightness and set zero, then open the portal pressure measuring kit, connect the catheter with the scalp vein set and high-sensitive pressure sensor, following the connection between pressure sensor and biological signal processing system. Fill all the catheters with heparin sodium saline (volume of heparin sodium and saline: 1.25 WU: 500 ml), eliminate the air bubbles and close the catheter. Then remove the needle in the scalp vein set, place it horizontally at the portal vein height of the rat (supine position). The zero point was set after opening the catheter in the biological collection system software. 3) Rats were anesthetized with inhalational isopentane through a mask. A midline abdominal incision was made, and the portal vein was cannulated with a 24-Gauge scalp vein set, connecting with a catheter filled heparin-saline, to measure PP. Effects of the selective antagonist of HTR1A WAY 100635, and alverine on portal pressure (PP) in cirrhotic portal hypertensive rats induced by carbon tetrachloride (CCl4). 1) Thirty-one male Wistar rats, weighting 140 g to 160 g, were randomly divided into normal control group (N=7) and CCl4 group (N=24). Rats in CCl4 group were subjected to intraperitoneally (i.p.) injections of CCl4 at 0.25 ml/kg (diluted 1:3 v/v in olive oil) twice per week for 12 weeks to induce cirrhotic portal hypertension, while the normal controls received injections of olive oil at the same timepoint. At the beginning of the eleventh week, rats in CCl4 group were randomly divided into four groups: Vehicle group (N=7), Alverine group (N=6), WAY 100635 group (N=5), and carvedilol group (N=6). 2) Alverine was diluted in sterile normal saline at a concentration of 5 mg/ml and delivered to the rats in Alverine group via gavage (p.o.). WAY 100635 was diluted in sterile normal saline at a concentration of 1 mg/ml and peritoneally injected (i.p.) into the rats in WAY 100635 group. Carvedilol was diluted in sterile normal saline at a concentration of 1 mg/ml and delivered to the rats in carvedilol group via gavage. 3) Rats in the Alverine group, WAY 100635 group, and carvedilol group were received alverine 15 mg/kg p.o.+saline i.p., saline p.o.+WAY 100635 1 mg/kg i.p., carvedilol 10 mg/kg p.o.+saline i.p., respectively once per day for one week, while rats in vehicle group received saline p.o. and saline i.p. at the same timepoint. 4) After one-week treatment, portal pressure of all the rats were measured and rats were sacrificed for liver tissues. Similar as that in embodiment example 1.

[2] = system: cirrhotic portal hypertensive rats induced by thioacetamide (TAA); test: Portal pressure in cirrhotic portal hypertensive rats induced by thioacetamide (TAA); type: in vivo, Male Wistar rats; conditions: TAA model; for Effect on portal pressure / Portal pressure: WAY 100635 1 mg/kg i.p.; for Effect on portal pressure: alverine 15 mg/kg by gavage, once per day; for Portal pressure: alverine 15 mg/kg p.o., means ±SEM; for Portal pressure / Effect on portal pressure compared with carvedilol: carvedilol 10 mg/kg p.o.; for Portal pressure / Change of portal pressure vs. Vehicle: once per day for one week; for Change of portal pressure vs. Vehicle: same dosing
Experimental: Effects of the selective antagonist of HTR1A WAY 100635, and alverine on portal pressure (PP) in cirrhotic portal hypertensive rats induced by thioacetamide (TAA).
Male Wistar rats, weighting about 140 to 160 grams (g) each, were purchased from SLAC Laboratory Animal Co., Ltd (Shanghai, China) and housed under standard animal laboratory conditions in the experimental animal center of Second Military Medical University (Shanghai, China). All animal experiments in this study were performed in accordance with protocols approved by the local Ethical Committee of the Second Military Medical University.
1) Thirty-five male Wistar rats, weighting 140 g to 160 g, were randomly divided into normal control group (N=8) and TAA group (N=27). Rats in TAA group were subjected to intraperitoneally (i.p.) injections of TAA (purchase from […]) at 200 mg/kg, which is diluted in sterile normal saline (NS; 0.9% sodium chloride), 3 times per week for 16 weeks to induce cirrhotic portal hypertension. The normal controls received injections of NS at the same timepoint. At the beginning of the 17th week, rats in TAA group were randomly divided into four groups: Vehicle group (N=7), Alverine group (N=7), WAY 100635 group (N=7), and carvedilol group (N=6).
2) Alverine (purchase from TargetMol) was diluted in the saline at a concentration of 5 mg/ml and delivered to the rats in Alverine group via gavage (p.o.). WAY 100635 (purchase from Selleck) was diluted in sterile normal saline at a concentration of 1 mg/ml and peritoneally injected (i.p.) into the rats in WAY 100635 group. Carvedilol (purchase from TargetMol) was diluted in sterile normal saline at a concentration of 1 mg/ml and delivered to the rats in carvedilol group via gavage.
3) Rats in the Alverine group, WAY 100635 group, and carvedilol group were received alverine 15 mg/kg p.o.+saline i.p., saline p.o.+WAY 100635 1 mg/kg i.p., carvedilol 10 mg/kg p.o.+saline i.p., respectively once per day for one week, while rats in vehicle group received saline p.o. and saline i.p. at the same timepoint.
4) After one-week treatment, portal pressure of all the rats were measured and rats were sacrificed for liver tissues.
(§1) 1) Self-made portal pressure measuring kit, which contains 24-Gauge scalp vein set (Y type) and catheter, and high-sensitive pressure sensor, biological signal processing system (SMUP-U, Jide experimental teaching equipment factory, Shanghai, China) were used to measure the portal pressure in rats.
(§2) 2) Connect all the catheters and device, check the tightness and set zero, then open the portal pressure measuring kit, connect the catheter with the scalp vein set and high-sensitive pressure sensor, following the connection between pressure sensor and biological signal processing system. Fill all the catheters with heparin sodium saline (volume of heparin sodium and saline: 1.25 WU: 500 ml), eliminate the air bubbles and close the catheter. Then remove the needle in the scalp vein set, place it horizontally at the portal vein height of the rat (supine position). The zero point was set after opening the catheter in the biological collection system software.
3) Rats were anesthetized with inhalational isopentane through a mask. A midline abdominal incision was made, and the portal vein was cannulated with a 24-Gauge scalp vein set, connecting with a catheter filled heparin-saline, to measure PP.
Data were presented as the means ±SEM. One-way analysis of variance (ANOVA) and student's t-tests were performed to compare data between two groups, and a P value of less than 0.05 was considered statistically significant.

[3] = system: cirrhotic portal hypertensive rats induced by carbon tetrachloride (CCl4); test: Portal pressure in cirrhotic portal hypertensive rats induced by CCl4, agonist 8-OH-DPAT (Example 3); type: in vivo, Male Wistar rats; conditions: CCl4 model
Description: as §1, §2
3) Rats were anesthetized with inhalational isopentane through a mask. A midline abdominal incision was made, and the portal vein was cannulated with a 24-Gauge scalp vein set, connecting with a catheter filled heparin-saline, to measure PP. […]
4) After one-week treatment, portal pressure of all the rats were measured and rats were sacrificed for liver tissues. […]

COc1ccccc1N1CCN(CCN(C(=O)C2CCCCC2)c2ccccn2)CC1 [WAY 100635]
Effect of antagonist on 5-HT induced contraction of isolated portal vein (isolated portal veins): abrogated | Effect of antagonist on 8-OH-DPAT induced contraction of isolated portal vein (isolated portal veins): almost completely inhibited | Effect of antagonist on F11440 induced contraction of isolated portal vein (isolated portal veins): almost completely inhibited | Effect on portal pressure [1]: significantly decrease | Portal pressure [1]: 7.36 ± 2.14 cmH2O | Effect on portal pressure compared with carvedilol [1]: not significantly different | Change of portal pressure vs. Vehicle [1]: (−37.88%^#, P = 0.0125) | Effect on portal pressure [2]: significantly decreased | Portal pressure [2]: 13.27 ± 3.00 cmH2O | Effect on portal pressure compared with carvedilol [2]: not significantly different | Change of portal pressure vs. Vehicle [2]: (−37.04%^#, P = 0.0001)

CCN(CCCc1ccccc1)CCCc1ccccc1 [Alverine]
Effect on portal pressure [1]: significantly decrease | Portal pressure [1]: 6.94 ± 0.98 cmH2O | Effect on portal pressure compared with carvedilol [1]: not significantly different | Change of portal pressure vs. Vehicle [1]: (−41.44%*, P = 0.0065) | Effect on portal pressure [2]: significantly decreased | Portal pressure [2]: 12.98 ± 1.74 cmH2O | Effect on portal pressure compared with carvedilol [2]: not significantly different | Change of portal pressure vs. Vehicle [2]: (−38.39%^#, P < 0.0001)

NCCc1c[nH]c2ccc(O)cc12 [5-HT, 5-hydroxytryptamine]
Effect of agonist on contractile tension of isolated portal vein (isolated portal veins): concentration-dependent contraction

Cn1c(=O)cnn(CCCCN2CCN(c3ncccn3)CC2)c1=O [F11440]
Effect of agonist on contractile tension of isolated portal vein (isolated portal veins): considerably increased the contractile force of iPVs in a concentration-dependent manner

NC(=O)c1ccc(F)c2c1C[C@@H](N(C1CCC1)C1CCC1)CO2 [NAD 299]
Effect of antagonist on 5-HT induced contraction of isolated portal vein (isolated portal veins): abrogated | Effect of antagonist on 8-OH-DPAT induced contraction of isolated portal vein (isolated portal veins): almost completely inhibited | Effect of antagonist on F11440 induced contraction of isolated portal vein (isolated portal veins): almost completely inhibited

COc1ccccc1OCCNCC(O)COc1cccc2[nH]c3ccccc3c12 (stereo not shown) [Carvedilol]
Portal pressure [1]: 7.99 ± 1.37 cmH2O | Change of portal pressure vs. Vehicle [1]: (−32.58%^#, P = 0.0200) | Portal pressure [2]: 14.01 ± 4.14 cmH2O | Change of portal pressure vs. Vehicle [2]: (−33.54%^#, P = 0.0025)

CCCN(CCC)C1CCc2cccc(O)c2C1 (stereo not shown) [8-OH-DPAT]
Effect of agonist on contractile tension of isolated portal vein (isolated portal veins): considerably increased the contractile force of iPVs in a concentration-dependent manner | Effect on portal pressure ([3]; 8-OH-DPAT 1 mg/kg i.p. once per day): increased; also recorded: significantly increase | Portal pressure ([3]; 8-OH-DPAT 1 mg/kg i.p. once per day for one week, means ±SEM): 11.66 ± 1.89 cmH2O
